Molecules are shown by their SMILES. ± gives the expanded uncertainty stated by the source.

From the NIST ThermoML archive (doi:10.1021/acs.jced.8b01250) come the findings set out here.

For data set [1] the following is noted: Crystal; DSC.
Data set [2] in a line: Molar enthalpy of transition or fusion. To be noted: Crystal; DSC.

Turning to `N#Cc1cccc([N+](=O)[O-])c1C#N` [3-nitrophthalonitrile], in data set [1], the Triple point temperature is 435.55 ± 1.2 K. Moreover, the “Molar enthalpy of transition or fusion” value in data set [2] is 4.59 ± 0.194 kcal/mol.
